Laboratory results from US8414989B2, “Cyclodextrin compositions, articles, and methods” (Cellresin Technologies, LLC, priority 2011, dated 2013).

How the values were obtained:
Type in all cases: physicochemical
[1] = Example 7: 1-MCP permeation through polyethylene film from PSA label into 1,000 mL headspace; conditions: 11 cm diameter PSA label on 25 μm PE film, 1,000 mL kettle
Text: This method is designed to measure the permeability of 1-MCP through polyethylene film into a confined, fixed volume headspace following release from a PSA label adhered to the surface of the film defining the fixed volume. The methodology simulates the headspace of a flexible film package having initially low relative humidity, wherein a PSA label containing 1-MCP is adhered to the outside of the package. As the humidity rises inside the package by respiration of fresh agricultural products, the water vapor increases in concentration and it diffuses through the package film to the outside environment but also into the PSA. Thus, as the water vapor diffuses through the film into the 1-MCP adhesive label adhered to the outside of the package film; 1-MCP released from the label adhesive into the fixed volume (headspace) was measured.
A coated, cured labelstock sheet made according to the procedure of Example 6 was cut by hand into an 11 cm diameter circle. Next the PET liner was removed from the label and the label was adhered via the PSA to a 13.5 cm diameter, 1 mil (25 μm) thick polyethylene (PE) film (obtained from the Pliant Corporation of Schaumburg, Ill.). The paper side of this structure was then covered with aluminum foil. The foil/paper/PSA/PE layered structure was mounted onto the open end of a 1,000 mL glass reaction kettle bottom (6947-1LBO, from Corning Glass of Corning, N.Y.) and sealed to the kettle's glass flange using aluminum sealing rings. The layered structure was oriented over the 11 cm opening with the PE film facing in and the aluminum facing out. The glass reaction kettle was modified with a silicone septum port to allow sampling of the 1,000 mL headspace. Headspace analysis was conducted by removing 250 μL of headspace volume from the 1,000 mL glass kettle and analyzing according to the technique of Example 3.
Then 200 μL of water was added through the septum port to the inside of the glass kettle. The headspace was analyzed for 1-MCP at 17, 25 and 90 hours after the injection of water using the technique employed in Example 3. At 17 hours, 25 hours, and 90 hours after injection of the water, the 1-MCP headspace concentration was 3.6 ppm, 7.0 ppm and 8.0 ppm of 1-MCP, respectively.

[2] = Example 4: 1-MCP headspace release versus coated surface area and time; conditions: 4.0 wt-% 1-MCP/c/α-CD coating, 20 μL water
Protocol: A 4.0 wt-% 1-MCP/c/α-CD blend was made according to the technique of Example 3. A rubber ink roller was used to deliver a coating having a nominal thickness of 0.3 μm to a 20 cm by 20 cm polyethylene extrusion coated paper sheet using the technique of Example 2. The coated sheet was cured according to the procedure of Example 2.
Using a razor blade, 26 cm^2, 52 cm^2, and 78 cm^2 samples were cut from the coated portion of the sheet. Each sample was placed in a 250 mL serum bottle. The bottles were sealed with TEFLON® faced silicone septa. Then 20 μL of deionized water was injected into each bottle. […] Bottle headspace analysis was conducted according to the technique of Example 3 at 0.17 hours, 0.5 hours, 1 hour, 2 hours, 4 hours and 24 hours after the injection of water.

[3] = Control Example A: dissociation of 1-MCP from supplied 1-MCP/c/α-CD powder as a function of added water; conditions: for Headspace concentration of 1-MCP: 0.1 g 1-MCP/c/α-CD powder, 250 mL bottle, shaken 1 hour, about 20 C
Protocol: A sample of 1-MCP/c/α-CD powder was obtained (AgroFresh of Spring House, Pa.). According to the supplier's specification sheet, 1-MCP was 4.7 wt % of α-CD or 88.7 wt % 1-MCP complex based on a theoretical 1:1 molar ratio of 1-MCP to α-CD; this corresponds to a resulting headspace concentration of 8,600 ppm. A series of tests were conducted to measure the dissociation of 1-MCP from the supplied 1-MCP/c/α-CD as a function of added water. First, 0.1 g aliquots of the supplied 1-MCP/c/α-CD powder were added to each of 5, 250 mL bottles, which were then capped with TEFLON® faced septa. Varying amounts of water were added to the bottles by syringe, and then the bottles were mechanically shaken for one hour, followed by headspace measurement for 1-MCP according to the procedure of Example 3. The amounts of water added per 0.1 g of the supplied 1-MCP/c/α-CD complex, and the resulting headspace measurements after 1 hour at about 20 C, are shown in Table 6.
A polynomial regression was used to calculate the dissociation at 100% RH in the headspace for the five samples of Table 6 (i.e., 4.3 milligrams water per 250 mL volume, see Example 8 for source and calculation of this information). The calculated amount of dissociated 1-MCP at 100% RH was 18 wt-%.

CC1=CC1 [1-MCP, 1-methylcyclopropene]
1-MCP headspace concentration ([1]; 200 μL water, 17 hours): 3.6 ppm | 1-MCP headspace concentration ([1]; 200 μL water, 25 hours): 7.0 ppm | 1-MCP headspace concentration ([1]; 200 μL water, 90 hours): 8.0 ppm | 1-MCP headspace concentration ([1]; no added water, two hours): < 0.01 ppm | Headspace concentration of 1-MCP ([2]; 26 cm^2, 250 mL bottle, 0.17 hrs): 0.25 ppm -v/v | Headspace concentration of 1-MCP ([2]; 26 cm^2, 250 mL bottle, 0.5 hrs): 1.5 ppm -v/v | Headspace concentration of 1-MCP ([2]; 26 cm^2, 250 mL bottle, 1 hr): 2.4 ppm -v/v | Headspace concentration of 1-MCP ([2]; 26 cm^2, 250 mL bottle, 2 hrs): 3.7 ppm -v/v | Headspace concentration of 1-MCP ([2]; 26 cm^2, 250 mL bottle, 4 hrs): 5.8 ppm -v/v | Headspace concentration of 1-MCP ([2]; 26 cm^2, 250 mL bottle, 24 hrs): 9.6 ppm -v/v | Headspace concentration of 1-MCP ([2]; 52 cm^2, 250 mL bottle, 0.17 hrs): 0.66 ppm - v/v | Headspace concentration of 1-MCP ([2]; 52 cm^2, 250 mL bottle, 0.5 hrs): 2.2 ppm - v/v | Headspace concentration of 1-MCP ([2]; 52 cm^2, 250 mL bottle, 1 hr): 4.2 ppm - v/v | Headspace concentration of 1-MCP ([2]; 52 cm^2, 250 mL bottle, 2 hrs): 7.0 ppm - v/v | Headspace concentration of 1-MCP ([2]; 52 cm^2, 250 mL bottle, 4 hrs): 9.9 ppm - v/v | Headspace concentration of 1-MCP ([2]; 52 cm^2, 250 mL bottle, 24 hrs): 16.1 ppm - v/v | Headspace concentration of 1-MCP ([2]; 78 cm^2, 250 mL bottle, 0.17 hrs): 1.7 ppm - v/v | Headspace concentration of 1-MCP ([2]; 78 cm^2, 250 mL bottle, 0.5 hrs): 3.4 ppm - v/v | Headspace concentration of 1-MCP ([2]; 78 cm^2, 250 mL bottle, 1 hr): 5.2 ppm - v/v | Headspace concentration of 1-MCP ([2]; 78 cm^2, 250 mL bottle, 2 hrs): 7.9 ppm - v/v | Headspace concentration of 1-MCP ([2]; 78 cm^2, 250 mL bottle, 4 hrs): 12.4 ppm - v/v | Headspace concentration of 1-MCP ([2]; 78 cm^2, 250 mL bottle, 24 hrs): 20.0 ppm - v/v | Headspace concentration of 1-MCP ([3]; 0.25 g H2O): 3,050 ppm (v/v) | Headspace concentration of 1-MCP ([3]; 0.5 g H2O): 4,750 ppm (v/v) | Headspace concentration of 1-MCP ([3]; 1.0 g H2O): 6,850 ppm (v/v) | Headspace concentration of 1-MCP ([3]; 2.0 g H2O): 9,850 ppm (v/v) | Headspace concentration of 1-MCP ([3]; 3.0 g H2O): 10,610 ppm (v/v) | 1-MCP dissociated from complex ([3]; 1.0 grams of water per 0.10 grams 1-MCP/c/α-CD): 66% | calculated amount of dissociated 1-MCP at 100% RH ([3]; polynomial regression of the five samples of Table 6, 4.3 milligrams water per 250 mL volume): 18 wt-% | resulting headspace concentration corresponding to supplier's specification ([3]; supplier's specification sheet 4.7 wt % 1-MCP, 0.1 g in 250 mL bottle): 8,600 ppm
